Target: cholera toxin B5 subunit (CT B5) (Vibrio cholerae serotype O1, UniProt P01556)
Test: biochemical
Format: binding

Sequence of cholera toxin B5 subunit (CT B5) (P01556 22-124 limits assumed): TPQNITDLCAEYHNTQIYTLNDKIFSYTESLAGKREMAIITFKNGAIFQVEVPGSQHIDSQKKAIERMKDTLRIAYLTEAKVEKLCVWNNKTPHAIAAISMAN

Molecule | Improvement over galactose | IC50 (IC50 (saccharide concentration)) [mM] | Non-specific binding of unmodified peptide
O=C[C@H](O)[C@@H](O)[C@@H](O)[C@H](O)CO [Galactose] | 1 | 30 to 45 | 
XGAGAGPSGAGAGPSGAGAGPSGAGAGPSGAGAGPXGGGG [35-RCG-2] |  |  | less than 20%
XGAKAKPKGAKAKPKGAKAKPKGAKAKPKGAKAKPXGGGG [35-RCK-2] |  |  | less than 20%

Reference: PMC2893567 (Macromolecular bioscience, 2010)
